Assay results published in US20020015990A1, “LACTOBACILLUS BIFIDUS GROWTH PROMOTING COMPOSITION AND USE THEREOF” (priority 1996, published 2002).

Tests used:
[1] = tested on: Bifidobacterium longum BB-536; experiment: Preliminary Test 1: change over time in medium turbidity (growth curve) with different sugar sources; assay type: cell-based; conditions: sugar in place of glucose in basic medium; up to 24 hours of cultivation at 37° C.; turbidity 660 nm
Experimental: This test was performed in order to investigate changes over time in medium turbidity and determine if measurement of turbidity after a certain cultivation time is valid for assessing the speed with which the Lactobacilluls bifidus consumes sugar:
Bifidobacterium longum BB-536, which is a microorganism belonging to the genus Bifidobacterium, derived from humans that was separated and identified from the feces of healthy adults by conventional methods (Tomonari Mitsuoka, ed., “Research of Bifidus Bacteria,” pages 40˜60, Zaidanhojin Nihon Bifizusukin Senta (Japan Bifidus Bacteria Center), 1994) was used in this test. Furthermore, this strain is stored by the inventors and is available for any person as needed. […]
First, 0.5 ml of each of the above-mentioned cultivation solutions of Lactobacillus bifidus were inoculated in every 2 of the above-mentioned test media and turbidity was immediately measured with a quartz cell at a wavelength of 660 nm and light path length of 10 mm using a spectrophotometer (Hitachi Seisakusho Co., Ltd.). […] Turbidity was measured under the same conditions as previously described at 2-hour intervals and the mean turbidity of the 2 test tubes was calculated as the determination.
Moreover, basic medium containing glucose was simultaneously used as the control and turbidity was similarly determined. […]

[2] = tested on: Bifidobacterium adolescentis BB-102; experiment: Consumption speed-accelerating effect (increase in turbidity after 8 hours, test medium / glucose basic medium); assay type: cell-based; conditions: for Consumption speed-accelerating effect, Bifidobacterium adolescentis: Table 1, single oligosaccharide in place of glucose; for Consumption speed-accelerating effect, B. adolescentis: Table 2, raffinose + lactulose, total 2.0% in place of 2.0% glucose
Experimental: (§1) Bifidobacterium bifidum BB-225, Bifidobacterium adolescentis BB-102, Bifidobacterium breve BB-308, Bifidobacterium longum BB-536. The basic culture medium and pre-cultivation solution were prepared as in above-mentioned Preliminary Test 1. The test culture medium was prepared using the following 7 types of oligosaccharides, which are widely used as Lactobacillus bifidus growth factor, in place of glucose: Raffinose (Nihon […] Seito Co., Ltd.), lactulose (Morinaga Milk Industry Co., Ltd.), galacto-oligosaccharide (Nisshin Seito Co., Ltd.), lactosucrose (Hayashibara Shoji Co., Ltd.), fructo-oligosaccharide (Meiji Seika Co., Ltd.), isomalto-oligosaccharide (Hayashibara Shoji Co., Ltd.), and xylo-oligosaccharide (Santori Co., Ltd.). Cultivation was performed as in above-mentioned Preliminary Test 1 and the sugar consumption speed was calculated by the following formula and comparative studies were performed, using the increment increase in turbidity of each medium up to 8 hours later as the index. Consumption speed-accelerating effect (fold)=(increase in turbidity after 8 hours in test medium)/(increase in turbidity after 8 hours in basic medium) The basic culture medium and pre-cultivation solution were prepared as for above-mentioned Preliminary Test 1. The test culture medium was prepared changing the total amount of each of the desired raffinose and oligosaccharide to 2.0% in place of the 2.0% glucose in the basic medium and the addition ratio to 13 steps. The oligosaccharides that were used were the same as in above-mentioned Preliminary Test 2, and cultivation, determination of turbidity and assessment of the sugar consumption speed-accelerating activity were performed by the same methods as in above-mentioned Preliminary Test 2.

[3] = tested on: Bifidobacterium bifidum BB-225; experiment: as above; assay type: cell-based; conditions: for Consumption speed-accelerating effect, Bifidobacterium bifidum: Table 1, single oligosaccharide in place of glucose; for Consumption speed-accelerating effect, B. bifidum: Table 2, raffinose + lactulose, total 2.0% in place of 2.0% glucose
Experimental: as §1

[4] = tested on: Bifidobacterium breve BB-308; experiment: as above; assay type: cell-based; conditions: for Consumption speed-accelerating effect, Bifidobacterium breve: Table 1, single oligosaccharide in place of glucose; for Consumption speed-accelerating effect, B breve: Table 2, raffinose + lactulose, total 2.0% in place of 2.0% glucose
Experimental: as §1

[5] = tested on: Bifidobacterium longum BB-536; experiment: as above; assay type: cell-based; conditions: for Consumption speed-accelerating effect, Bifidobacterium longum: Table 1, single oligosaccharide in place of glucose; for Consumption speed-accelerating effect, B longum: Table 2, raffinose + lactulose, total 2.0% in place of 2.0% glucose
Experimental: as §1

[6] = tested on: 4 species of Lactobacillus bifidus; experiment: Mean consumption speed-accelerating activity of 4 species of test bacteria; assay type: cell-based, Bifidobacterium adolescentis, breve, bifidum, longum; conditions: 8 hours; for Mean consumption speed-accelerating activity of 4 species: Table 2, raffinose + lactulose; for Mean consumption speed-accelerating activity of 4 species / Mean consumption speed-accelerating activity of 4 species of test bacteria: total 2.0% in place of 2.0% glucose; for Mean consumption speed-accelerating activity of 4 species of test bacteria: Table 3, raffinose + other oligosaccharide
Experimental: Bifidobacterium bifidum BB-225, Bifidobacterium adolescentis BB-102, Bifidobacterium breve BB-308, Bifidobacterium longum BB-536. Cultivation was performed as in above-mentioned Preliminary Test 1 and the sugar consumption speed was calculated by the following formula and comparative studies were performed, using the increment increase in turbidity of each medium up to 8 hours later as the index. Consumption speed-accelerating effect (fold)=(increase in turbidity after 8 hours in test medium)/(increase in turbidity after 8 hours in basic medium) The same four species of Lactobacillus bifidus as used in above-mentioned Preliminary Test 2 were employed. The basic culture medium and pre-cultivation solution were prepared as for above-mentioned Preliminary Test 1. The test culture medium was prepared changing the total amount of each of the desired raffinose and oligosaccharide to 2.0% in place of the 2.0% glucose in the basic medium and the addition ratio to 13 steps. The oligosaccharides that were used were the same as in above-mentioned Preliminary Test 2, and cultivation, determination of turbidity and assessment of the sugar consumption speed-accelerating activity were performed by the same methods as in above-mentioned Preliminary Test 2. The consumption speed-accelerating effect of each of the 4 strains of Lactobaccilus bifidus tested, as well as the average consumption speed-accelerating effect of the 4 species tested, in a culture medium that used a combination of raffinose and lactulose are shown in Table 2 and the average consumption speed-accelerating effect in each of the 4 species of bacteria tested with various test media other than medium using raffinose and lactulose are shown in Table 3.

Row | Structure (SMILES) | sugar consumption speed compared with glucose medium (FIG. 1) [1] | Consumption speed-accelerating effect, Bifidobacterium adolescentis [2] [fold] | Consumption speed-accelerating effect, B. adolescentis [2] | Consumption speed-accelerating effect, Bifidobacterium bifidum [3] [fold] | Consumption speed-accelerating effect, B. bifidum [3] | Consumption speed-accelerating effect, Bifidobacterium breve [4] [fold] | Consumption speed-accelerating effect, B breve [4] | Consumption speed-accelerating effect, Bifidobacterium longum [5] [fold] | Consumption speed-accelerating effect, B longum [5] | consumption speed-accelerating activity by Lactobacillus bifidus (in words) ([6]; 4 species, compared with glucose medium) | Mean consumption speed-accelerating activity of 4 species [6] | Mean consumption speed-accelerating activity of 4 species of test bacteria [6] | availability for Bifidobacterium bifidus (in words) ([3]; single oligosaccharide in place of glucose)
1 | OC[C@H]1O[C@@H](O[C@@H]2[C@@H](CO)OC(O)(CO)[C@H]2O)[C@H](O)[C@@H](O)[C@H]1O (mixture of isomers) [Lactulose] | approximately the same sugar consumption speed as the medium that used glucose | 0.97 | (0.97) fold | 0.96 | (0.96) fold | 1.08 | (1.08) fold | 0.92 | (0.92) fold | relatively strong consumption speed-accelerating activity | (0.98) fold | – | –
2 | OC[C@H]1O[C@@H](O[C@H]2[C@H](O)[C@@H](O)[C@@H](O[C@]3(CO)O[C@H](CO)[C@@H](O)[C@@H]3O)O[C@@H]2CO)[C@H](O)[C@@H](O)[C@H]1O [Lacto-sucrose, lactosucrose] | – | 0.83 | – | 0.03 | – | 0.87 | – | 0.78 | – | – | – | (0.63) fold | –
3 | OC[C@H]1O[C@H](OC[C@H]2O[C@H](O[C@]3(CO)O[C@H](CO)[C@@H](O)[C@@H]3O)[C@H](O)[C@@H](O)[C@@H]2O)[C@H](O)[C@@H](O)[C@H]1O [Raffinose] | higher consumption speed than the medium that used glucose | 1.02 | (1.02) fold | 0.02 | (0.02) fold | 1.15 | (1.15) fold | 1.09 | (1.09) fold | – | (0.82) fold | (0.82) fold | did not show availability
